Assays:
Hyaluronidase-1 [1] = target: T1, Hyaluronidase-1 (Homo sapiens, UniProt Q12794); test: Stains-all Assay; settings: pH 7; 37 °C
T1 sequence (Q12794 whole entry): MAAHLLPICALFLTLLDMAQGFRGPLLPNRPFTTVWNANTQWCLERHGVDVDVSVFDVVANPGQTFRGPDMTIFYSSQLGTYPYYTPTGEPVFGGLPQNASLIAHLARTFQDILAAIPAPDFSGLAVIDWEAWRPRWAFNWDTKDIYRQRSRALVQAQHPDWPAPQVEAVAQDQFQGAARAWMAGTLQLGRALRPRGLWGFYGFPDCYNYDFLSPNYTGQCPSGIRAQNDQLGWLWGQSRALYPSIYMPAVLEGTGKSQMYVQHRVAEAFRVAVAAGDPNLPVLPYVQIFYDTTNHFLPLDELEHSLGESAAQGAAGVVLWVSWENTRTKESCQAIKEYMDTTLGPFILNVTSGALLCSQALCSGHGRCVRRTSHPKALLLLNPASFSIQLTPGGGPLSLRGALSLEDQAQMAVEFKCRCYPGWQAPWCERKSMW
Text: Stains-all assay were used to test inhibitors at pH of 7.

Hyaluronidase-1 [2] = target: T1, Hyaluronidase-1; test: Morgan-Elson Assay; settings: pH 3.5; 37 °C
Text: Morgan-elson assay were used to test inhibitors at pH of 3.5.

SMILES	IC50 (Hyaluronidase-1 [1])	IC50 (Hyaluronidase-1 [2])
O=C(NCc1ccccc1)c1cc2ccccc2n1Cc1ccccc1 [N-Substituted indole-2- and 3-carboxamide derivative, 1]	40.3 µM	78.2 µM
O=C(NCc1ccc(Cl)cc1)c1cc2ccccc2n1Cc1ccccc1 [N-Substituted indole-2- and 3-carboxamide derivative, 2]	33.2 µM	64.3 µM
O=C(NCc1ccc(F)cc1)c1cc2ccccc2n1Cc1ccccc1 [N-Substituted indole-2- and 3-carboxamide derivative, 3]	27.2 µM	–
O=C(NCc1ccccc1)c1cc2ccccc2n1Cc1ccc(F)cc1 [N-Substituted indole-2- and 3-carboxamide derivative, 6]	41.1 µM	–
O=C(NCc1ccc(Cl)cc1)c1cc2ccccc2n1Cc1ccc(F)cc1 [N-Substituted indole-2- and 3-carboxamide derivative, 7]	33 µM	–
O=C(NCc1ccc(F)cc1)c1cc2ccccc2n1Cc1ccc(F)cc1 [N-Substituted indole-2- and 3-carboxamide derivative, 8]	29.9 µM	–
O=C(NCc1ccccc1)c1cn(Cc2ccc(F)cc2)c2ccccc12 [N-Substituted indole-2- and 3-carboxamide derivative, 16]	33 µM	61.6 µM
O=C(NCc1ccc(Cl)cc1)c1cn(Cc2ccc(F)cc2)c2ccccc12 [N-Substituted indole-2- and 3-carboxamide derivative, 17]	33.7 µM	72.9 µM
O=C(NCc1ccc(F)cc1)c1cn(Cc2ccc(F)cc2)c2ccccc12 [N-Substituted indole-2- and 3-carboxamide derivative, 18]	25.7 µM	56.7 µM
